Data from US20070014736A1, “Methods of delivering corticotroph-derived glycoprotein hormone” (priority 2005, published 2007).

What was measured:
obese male ob/ob mice = assay: Chronic 28-day treatment of ob/ob mice; format: in vivo
Description: Summary: CGH was administered daily for 28 days to obese male ob/ob mice. Mice were also treated with vehicle saline and thyroxine. Data was obtained for food intake, blood glucose, serum insulin, serum lipids, and serum thyroid hormone levels. At sacrifice, animals were examined for changes in liver pathology, and gross histology. […] Evaluation of liver histology sections was performed to examine the effect of CGH-mediated lipolysis on liver steatosis.
11-week old male ob/ob mice were individually caged and given a standard lab chow (4% fat) with free access to food and water. Animals were assigned to a treatment group (n=7−8, average weight 54.3±0.3 g/group), kept on a 12 hour dark cycle (6 PM to 6 AM), and injected each day between 7 and 9 AM. Chow consumed by each animal was weighed twice weekly. All animals received treatments IP in an injection volume of 0.1 ml. CGH was administered at 250 μg/kg, dissolved in sterile saline. Thyroxine (T4) was administered at 1.5 μg/mouse for 4 days, reduced to 1 μg/mouse for 10 days, and returned to 1.5 μg/mouse for the next 14 days. The vehicle controls received sterile saline. TSH was obtained from Genzyme Pharmaceuticals (Thyrogen®, Catalog number 36778; Genzyme Corporation, Cambridge, Mass.), and T4 obtained from Calbiochem, Inc. (EMD Biosciences, catalog number 61205, San Diego, Calif.) All blood draws were performed by retro-orbital puncture under isoflurane anesthesia.
After 25 days of treatment as described above, blood was sampled from all treated animals, serum separated, and analyzed for total T4 by a commercially available kit (Biocheck, Burlingame, Calif.). After 25 days of treatment, the vehicle T4 levels were 5.14±0.08 μg/dl. The CGH-treated group had T4 levels of 7.25±1.2 μg/dl, and the thyroxine-treated group had T4 levels of 9.04±0.47 μg/dl.
Subject animals were fasted for 4 hours at the beginning of the light cycle, and serum was obtained at treatment day 25 under isoflurane anesthesia. Serum Glucose levels were determined with the Cholestech LDX blood analyzer (Cholestech Corporation, Hayward Calif.), and serum insulin levels by ELISA. Serum glucose levels for vehicle and thyroxine treated groups were 306±22 and 295±23 mg/dl, respectively. […] Serum insulin levels for the vehicle and thyroxine treated groups were 33.5±1.8 and 25.9±1.7 ng/ml, respectively.
Subject animals were fasted for 4 hours at the beginning of the light cycle, and serum was obtained at treatment day 25 under isoflurane anesthesia. Triglyceride and total cholesterol levels were determined with the Cholestech LDX blood analyzer. Serum triglyceride levels for the vehicle controls were 143.7±23 mg/dl. […] Total cholesterol levels in the vehicle-treated and thyroxine-treated groups were 198±13 and 194±15 mg/dl, respectively.
Liver sections were dissected from all treatment groups described above and mounted in paraffin following fixation with NBS-formalin. Sections were mounted and stained with hematotoxylin and eosin (H&E) for visualization of hepatic structural changes. The extent of liver steatosis was evaluated on a four-point scale, from 0 to 3, with zero displaying no signs of liver steatosis, and a […], represented pronounced macrovesicular and microvesicular steatosis. […] Average scores given to the groups were vehicle (4), thyroxine (3), and CGH (1.5). […] The CGH treated sections appear to have regained hallmarks of normal hepatocyte architecture in only 28 days of treatment, with areas containing hepatocytes without lipid-laden inclusions in the cytoplasm of the cell.

lipolysis in mice = assay: Stimulation of lipolysis in vivo, serum glycerol and FFA; conditions: fasted mice, IP; CGH 300 μg/kg, CL 1 mg/kg
Description: CGH, the β3-adrenoreceptor agonist CL 316,243 (CL), and saline vehicle were examined for stimulation of lipolysis in mice following an overnight fast. […] Lipolysis was assessed as the percent change in serum glycerol or FFA over the 2 hour period. The serum glycerol and FFA for the vehicle groups decreased by 7%±9% and 24%±15%, respectively. The serum glycerol for the CGH group increased by 57%±20%; p=0.0254, and the FFA levels increased 25%±5%; p=0.0188.
C57 BL/6 male mice, age 19 weeks, were grouped to normalize weight (n=4 for each treatment; average group weight=37.8 g±0.4 g). Mice were housed individually for 18 hours prior to treatment, at which time food was withdrawn, with free access to water given. At approximately 8 a.m., the subjects were anesthetized with halothane and blood samples taken by retro-orbital eye bleed. The blood was allowed to clot, and the serum was separated by centrifugation and frozen for later analysis. Test substances were administered by IP injection in a volume of 0.1 ml, and the animals replaced in their cages for 2 hours with free access to water. At 2 hours, the mice were sacrificed and blood drawn by cardiac puncture.
For measuring free fatty acids in serum, the method previously described for measuring free fatty acids in conditioned media was followed, with the following modifications. Wako reagents A and B were reconstituted to 2× the recommended concentration. 75 μl of Wako reagent A were added to 5 μl of oleic acid standard plus 5 μl of water. 75 μl of Wako reagent A were added to 5 μl of serum plus 5 μl of methanol (to mirror the oleic acid standard conditions). The 96-well plates were incubated at 37° C. for 10 minutes. 150 μl of Wako reagent B were added to each well. The 96-well plates were incubated at 37° C. for 10 minutes. The 96-well plates were allowed to sit at room temperature for 5 minutes. The 96-well plates were centrifuged in a Beckman Coulter Allegra 6R centrifuge at 3250×g for 5 minutes to remove air bubbles. The absorbance at 530 nm was measured on the Wallac Victor2 Multilabel counter.
For measuring glycerol in serum, the method previously described for measuring glycerol in conditioned media was followed, with the modifications described below.
Sigma reagent A was reconstituted to 0.5× the recommended concentration. 200 μl of Sigma reagent A were added to 10 μl of glycerol standard. 200 μl of Sigma reagent A were added to 5 μl of serum plus 5 μI of water. The 96-well plates were incubated for 15 minutes at room temperature. The 96-well plates were centrifuged in a Beckman Coulter Allegra 6R centrifuge at 3250×g for 5 minutes to remove air bubbles. The absorbance at 530 nm was measured on the Wallac Victor2 Multilabel counter.

[1] = test system: LPS-induced mild endotoxemia mouse model; assay: LPS-induced mild endotoxemia mouse model, serum cytokines; format: in vivo, mice; conditions: 2 mg/kg monomer, data not shown
Description: An in vivo experiment was designed to examine the effect of CGH in a mouse model of LPS-induced mild endotoxemia. This model mimics acute endotoxemia/sepsis by challenging mice with a low, non-lethal dose of bacterial endotoxin (lipopolysaccharide, LPS). Serum is collected at various timepoints (1-8 hours) after intraperitoneal LPS injection and analyzed for altered expression of a wide variety of pro- and anti-inflammatory cytokines and acute phase proteins that mediate the inflammatory response. The model provides a means to assess the potential anti-inflammatory effects of therapeutic candidates during a robust inflammatory response. To initially assess the model, we measured proinflammatory cytokines in a pilot experiment to collect reference data for the model.
C57B1/6 mice (Charles River Laboratories; 5 mice/group) were treated i.p. with PBS, 0.2 mg/kg CGH in PBS, or 2 mg/kg CGH in PBS 1 hour prior to LPS challenge. The mice were then challenged with 25 ug of LPS i.p. and bled at 1 hour and 4 hours after LPS injection. Serum was analyzed for TNF[…] (1 hour) and IL-6 (4 hours) levels by ELISA.
To determine if CGH would potentiate the effect of a sub-maximal dose of glucocorticoid, groups of 10 C57B1/6 mice each were treated i.p. with PBS, 0.15 or 1.5 mg/kg Dex, 2 mg/kg CGH, or a combination of CGH and low or high doses of Dex, 1 hour prior to injection of 25 ug LPS i.p. As shown in TABLE 3 (Expt #2), either 2 mg/kg CGH or 1.5 mg/kg Dex treatment alone (1 hour prior to LPS) caused a significant drop in serum TNFα levels at 1 hour, as observed in previous experiments. The effects of CGH administered in conjunction with Dex on inhibition of TNFα production were greater than either dose of Dex alone.

TSHR = assay: Binding of 125I-CGH and 125I-TSH to BHK cells expressing the TSHR; parameters: species or system murine or human; conditions: increasing amounts of unlabeled protein
Description: BHK cells expressing murine or human TSHRs were cultured in Dulbecco's Modified Eagle's Medium [DMEM (high glucose)] containing 5% fetal bovine serum, 1% Glutamax, 1% sodium pyruvate, 250 nM methotrexate, and Geneticin ( 1/100). […] Plates of cells were placed on ice and washed twice with 1.0-2.0 ml of ice-cold PBS. […] Specific binding was determined in the presence (nonspecific binding) and absence (total binding) of unlabeled rhCGH (25.0 μg/ml) or TSH (10 μg/ml). Binding reactions were terminated by removing the binding medium and the cell monolayers were washed three times with 1.0-2.0 ml of ice-cold PBS containing 1.0 mg/ml BSA and twice with 1.0-2.0 ml of ice cold albumin-free PBS. Cells were solubilized in 1.0 ml of 1.0N NaOH for 10 min at room temperature and cell-associated radioactivity was determined in a gamma counter. The measured radioactivity was normalized to cell number that was determined on plates of cells cultured in parallel. Binding data were analyzed by non-linear regression using Prizm 3.0 (GraphPad Software, San Diego, Calif.).

N[C@@H](Cc1cc(I)c(Oc2cc(I)c(O)c(I)c2)c(I)c1)C(=O)O [thyroxine, reference compound]
liver steatosis average score (obese male ob/ob mice; H&E liver sections, 28 days, n=4): 3
serum total T4 levels (obese male ob/ob mice; after 25 days of treatment): 9.04 ± 0.47 µg/dL
Serum glucose levels (obese male ob/ob mice; day 25, fasted 4 hours): 295 ± 23 mg/dL
Serum insulin levels (obese male ob/ob mice; day 25, fasted 4 hours): 25.9 ± 1.7 ng/mL
Serum triglyceride levels (obese male ob/ob mice; day 25, fasted 4 hours): 198 ± 43 mg/dL
Total cholesterol levels (obese male ob/ob mice; day 25, fasted 4 hours): 194 ± 15 mg/dL
Food intake (obese male ob/ob mice; ob/ob mice, CGH 250 μg/kg IP daily, T4 1-1.5 μg/mouse): 6.1±0.17 grams/day of chow

C[C@H](Cc1ccc2c(c1)OC(C(=O)[O-])(C(=O)[O-])O2)NC[C@H](O)c1cccc(Cl)c1.[Na+].[Na+] [CL, CL 316,243, reference compound]
percent change (increase) in serum FFA over 2 hours (lipolysis in mice): 82%±16%
percent change (increase) in serum glycerol over 2 hours (lipolysis in mice): 168%±23%

B1: zsig51: alpha subunit of CGH, glycoprotein hormone alpha2, previously called Zsig51 (protein)
chain: QEAVIPGCHLHPFNVTVRSDRQGTCQGSHVAQACVGHCESSAFPSRYSVLVASGYRHNITSVSQCCTISGLKKVKVQLQCVGSRREELEIFTARACQCDMCRLSRY
effect on serum TNFα or IL-6 levels [1]: neither of these monomers had any effect
reduction of the amount of 125I-CGH bound by unlabeled competitor (TSHR): neither unlabeled rhTSH (FIG. 1C) nor unlabeled rhGPHA2 nor rhGPHB5 (data not shown) reduced the amount of ^125I-CGH bound

B2: zlut1: beta subunit of CGH, glycoprotein hormone beta 5, previously called Zlut1 (protein)
chain: ASSGNLRTFVGCAVREFTFLAKKPGCRGLRITTDACWGRCETWEKPILEPPYIEAHHRVCTYNETKQVTVKLPNCAPGVDPFYTYPVAIRCDCGACSTATTECETI
effect on serum TNFα or IL-6 levels [1]: neither of these monomers had any effect
reduction of the amount of 125I-CGH bound by unlabeled competitor (TSHR): neither unlabeled rhTSH (FIG. 1C) nor unlabeled rhGPHA2 nor rhGPHB5 (data not shown) reduced the amount of ^125I-CGH bound
